Data on four molecules can be found in patent US6867305B2, “Synthesis of epothilones, intermediates thereto and analogues thereof” (Sloan-Kettering Institute for Cancer Research, priority 1996, dated 2005).

The test system of data set [1] is UL-3-C ovarian adenocarcinoma. Put plainly: Tumor cell growth inhibition in vitro. In kind it is cell-based, human. On the procedure: (§1) The fresh medium containing each drug was replenished every 7-14 days. […] In each case ,the drug-exposed cells were resuspended in fresh media for a minimum of 4 days before the experiments for the cell-growth inhibition was carried out.
(§2) The cells were cultured at an initial density of 2-5×10^4 cells per ml. They were maintained in a 5% CO2-humidified atmosphere at 37° C. in RPMI mediun 1640 (GIBCO/BRL) containing penicillin (100 units/ml), streptomycin (100 μg/ml) (GIBCO/BRL), and 5% heat-inactivated fetal bovine serum. For solid tumor cells growing in a monolayer (such as MCF-7/Adr), cytotoxicitiy of the drug was determined in 96-well microtiter plates by using the sulforhodamine B method as described by Skehan et al (23) for measuring the cellular protein content. For cells that were grown in suspension (such as CCRF-CEM and its sublines), cytotoxicitiy was measured by using the 2,-3-bis(2-methoxy-4-nitro-5-sulfophenyl)-5carboxanilide)-2H terazodium hydroxide (XTT)-microculture tetrazonium method (24) in duplicate in 96-well microtiter plates. For both methods, the absorbance of each well was measured with a microplate reader (EL-340, Bio-Tek, Burlington, Vt.). Each run entailed six or seven concentrations of the tested drugs. Dose-effect relationship data were analyzed with the median-effect plot (25) by using a previously described computer program (26).

A short description of data set [2]: Body-weight decrease and lethality in tumor-bearing nude mice. On the procedure: Depending on the tumor type, treatment started on day 10 to day 21 when subcutaneous tumor size reached 35-200 mm^3, except otherwise indicated. Tumor size and body-weight were recorded every other day (Q2D) and, for humane reasons, the animals were sacrificed when tumor size reached ≧10% of body-weight. Each group, including untreated control, consisted of 3-5 animals unless otherwise indicated.
Essential features of useful cancer therapeutic agent involve not only high efficiency against cancer but also low toxicity toward the host, especially toward vital organs or functions [i.e. wide therapeutic window or high therapeutic index (LD50/ED50)].
Human tumor cells (5×10^6) or tumor tissue (30-50 mg) were implanted s.c. flank in nu/nu mice (Charles River Laboratories, Wilmington, Mass.). When tumor grew to a specified size, treatment was started by every-other day×5 with 6 hr i.v.-infusion, unless otherwise indicated. Tumor volume was measured with calipers in three dimensions (length×width×height or width). Body-weight changes and lethality were monitored every other day.

The test system of data set [3] is SK-OV-3 human ovary adenocarcinoma. Put plainly: Tumor cell growth inhibition in vitro. In kind it is cell-based. The method, then:
as §2, with “They were maintained in a 5% CO2-humidified atmosphere at 37° C. in RPMI mediun 1640 (GIBCO/BRL) containing penicillin (100 units/ml), streptomycin (100 μg/ml) (GIBCO/BRL), and 5% heat-inactivated fetal bovine serum.” left out

In data set [4] the test system is MX-1 human mammary carcinoma. In words: Tumor cell growth inhibition in vitro. In kind it is cell-based. The note with it: Homo sapiens, MX1. On the procedure:
as §2, with “They were maintained in a 5% CO2-humidified atmosphere at 37° C. in RPMI mediun 1640 (GIBCO/BRL) containing penicillin (100 units/ml), streptomycin (100 μg/ml) (GIBCO/BRL), and 5% heat-inactivated fetal bovine serum.” left out

Data set [5] has as its system MCF-7 human mammary adenocarcinoma. In words: Tumor cell growth inhibition in vitro. In kind it is cell-based. On the procedure:
as §2, with “They were maintained in a 5% CO2-humidified atmosphere at 37° C. in RPMI mediun 1640 (GIBCO/BRL) containing penicillin (100 units/ml), streptomycin (100 μg/ml) (GIBCO/BRL), and 5% heat-inactivated fetal bovine serum.” left out

For data set [6], the system named is HT-29 human colon adenocarcinoma. In words: Tumor cell growth inhibition in vitro. The data set is classed as cell-based. The method, then: as §2, with “They were maintained in a 5% CO2-humidified atmosphere at 37° C. in RPMI mediun 1640 (GIBCO/BRL) containing penicillin (100 units/ml), streptomycin (100 μg/ml) (GIBCO/BRL), and 5% heat-inactivated fetal bovine serum.” left out

The test system of data set [7] is PC-3 human prostate adenocarcinoma. In words: Tumor cell growth inhibition in vitro. In kind it is cell-based. On the procedure: as §2, with “They were maintained in a 5% CO2-humidified atmosphere at 37° C. in RPMI mediun 1640 (GIBCO/BRL) containing penicillin (100 units/ml), streptomycin (100 μg/ml) (GIBCO/BRL), and 5% heat-inactivated fetal bovine serum.” left out

Data set [8] has as its system K562 human chronic myeloblastic leukemia. Put plainly: Tumor cell growth inhibition in vitro. In kind it is cell-based. On the procedure: as §2, with “They were maintained in a 5% CO2-humidified atmosphere at 37° C. in RPMI mediun 1640 (GIBCO/BRL) containing penicillin (100 units/ml), streptomycin (100 μg/ml) (GIBCO/BRL), and 5% heat-inactivated fetal bovine serum.” left out

Data set [9] has as its system HL-60 human promyelocytic leukemia. Put plainly: Tumor cell growth inhibition in vitro. The data set is classed as cell-based. On the procedure: as §2, with “They were maintained in a 5% CO2-humidified atmosphere at 37° C. in RPMI mediun 1640 (GIBCO/BRL) containing penicillin (100 units/ml), streptomycin (100 μg/ml) (GIBCO/BRL), and 5% heat-inactivated fetal bovine serum.” left out

For data set [10], the system named is MCF-7/Adr. In words: Tumor cell growth inhibition in vitro. The data set is classed as cell-based, human. The note with it: for pIC50: MCF-7/Adr; for cross-resistance (fold of resistance vs parent cell line): MCF-7/Adr vs MCF-7. The method, then:
as §2, with “They were maintained in a 5% CO2-humidified atmosphere at 37° C. in RPMI mediun 1640 (GIBCO/BRL) containing penicillin (100 units/ml), streptomycin (100 μg/ml) (GIBCO/BRL), and 5% heat-inactivated fetal bovine serum.” left out

The subject of data set [11] is CCRF-CEM/VM1 (teniposide-resistant subline). In words: Tumor cell growth inhibition in vitro (XTT, 72 h). The data set is classed as cell-based, human. The note with it: for cross-resistance (fold of resistance vs parent cell line): CCRF-CEM/VM1 vs CCRF-CEM; for pIC50: Homo sapiens. The method, then:
as §1, §2

The subject of data set [12] is CCRF-CEM/Taxol (paclitaxel-resistant subline). In words: Tumor cell growth inhibition in vitro (XTT, 72 h). The note with it: for cross-resistance (fold of resistance vs parent cell line): CCRF-CEM/Taxol vs CCRF-CEM; for pIC50: Homo sapiens, CCRF-CEM, 72 h. In kind it is cell-based, human. On the procedure:
as §1, §2

Data set [13] concerns CCRF-CEM/VBL100 (vinblastine-resistant subline). Put plainly: Tumor cell growth inhibition in vitro (XTT, 72 h). The data set is classed as cell-based, human. The note with it: for cross-resistance (fold of resistance vs parent cell line): CCRF-CEM/VBL100 vs CCRF-CEM. The method, then: as §1, §2
Data set [14] concerns DC-3F/ADII. In words: Tumor cell growth inhibition in vitro. In kind it is cell-based, hamster. The note with it: for pIC50: DC-3F/ADII; for cross-resistance (fold of resistance vs parent cell line): DC-3F/ADII vs DC-3F. On the procedure:
as §1, §2

Data set [15] concerns CCRF-CEM human T-cell acute lymphoblastic leukemia cells. In words: Tumor cell growth inhibition in vitro (XTT, 72 h). The note with it: CCRF-CEM; for pIC50: 72 h incubation. In kind it is cell-based. On the procedure: as §1, §2
On the technique in general: Formazan colour is commonly taken as a measure of viable cells.

Where [16] appears, read: Homo sapiens, MCF7, MCF-7, read-out: IC50.
[17] abbreviates: Homo sapiens, K562, K562, read-out: IC50.

pIC50: −log10 of the molar value. “And” between values parts separate entries of the source, which are not always exact repeats. Equal entries are not always repeated. Where two headings read alike, the source gives them in different places.

For `C/C1=C/C[C@@H](/C(C)=C/c2csc(CO)n2)OC(=O)C[C@H](O)C(C)(C)C(=O)[C@H](C)[C@@H](O)[C@@H](C)CCC1` [dEpoF, 12,13-Desoxyepothilone F], the pIC50 in data set [1] (Homo sapiens, read-out: IC50) was 8.32; in data set [3], 8.29; in data set [4] it was 8.38; in data set [5] (setting [16]) it was 8.16; in data set [5] (MCF-7), 8.00; in data set [6], 8.85. Moreover, the pIC50 in [7] was 7.92; in [8] (setting [17]), 8.68; in [9], 9.15; in data set [10] (Homo sapiens, NCI/ADR-RES), 8.01; in data set [10], 7.73; in data set [11] (CCRF-CEM, 72 h), 8.31. In addition, the pIC50 in [12] is 8.28; in [13] (Homo sapiens, CCRF-CEM, 72 h) it was 7.33; in data set [14] it was 7.74; in [14] (Mesocricetus auratus, DC3F), 7.65; in data set [15] it was 8.57. In data set [2] (nude mice), the “drop in body-weight during treatment without causing lethality” value is reported as 23-29%. Further, the “cross-resistance (fold of resistance vs parent cell line)” value was 1.4 x and 1.9 x in data set [10]; 1.8 x in [11]; 2.0 x in [12]; 17.4 x in data set [13]. Besides, the “potency relative to dEpoB (times less potent)” value in [15] is “slightly less potent than dEpoB”.

As for `CC(=O)O[C@H]1C(=O)[C@@]2(C)[C@H]([C@H](OC(=O)c3ccccc3)[C@]3(O)C[C@H](OC(=O)[C@H](O)[C@@H](NC(=O)c4ccccc4)c4ccccc4)C(C)=C1C3(C)C)[C@]1(OC(C)=O)CO[C@@H]1C[C@@H]2O` [Taxol, paclitaxel, reference compound], the negative-log IC50 (pIC50) is 8.82 in [1]; 8.80 in data set [1] (Homo sapiens); 8.42 in data set [3]; 7.40 in data set [4]; 8.62 in [5] (setting [16]); 8.80 in data set [6]. Further, the pIC50 in data set [7] is 7.55; in [8] (Homo sapiens, K562, read-out: IC50), 8.54; in data set [9], 8.96; in data set [13] (CCRF-CEM/VBL100, 72 h) it was 5.29; in data set [14], 4.69; in data set [14] (listed as Paclitaxel), 6.23. Further, the pIC50 in [15] is 8.92. In addition, in data set [2] (mouse, in vivo), the “body-weight decrease without lethality at the doses used” value is 10-20%.

In the case of `C/C1=C/C[C@@H](/C(C)=C/c2csc(C)n2)OC(=O)C[C@H](O)C(C)(C)C(=O)[C@H](C)[C@@H](O)[C@@H](C)CCC1` [dEpoB, 12,13-desoxyepothilone B], the pIC50 in data set [1] (Homo sapiens, read-out: IC50) is 8.68; in [3], 8.46; in data set [4], 7.66; in data set [5] (setting [16]), 8.40; in data set [5] (MCF-7) it was 8.42; in data set [6] it was 8.32. In addition, the negative-log IC50 (pIC50) in data set [7] is 7.68; in [8] (setting [17]) it was 8.44; in [8] (K562) it was 8.16; in data set [9] it was 8.51; in [10] (Homo sapiens, NCI/ADR-RES), 8.15; in [10], 7.88. For the same molecule, the negative-log IC50 (pIC50) is 7.85 in data set [11] (CCRF-CEM, 72 h); 7.79 in [12]; 7.77 in [13] (Homo sapiens, CCRF-CEM, 72 h); 8.13 in data set [15]; 8.02 in [15] (Homo sapiens, 72 h). The “body-weight decrease without lethality at the doses used” value in data set [2] (dEpoB 30-40 mg/kg, paclitaxel 15-24 mg/kg, 6-hr i.v. infusion) is given as 10-20%. Besides, the “drop in body-weight during treatment without causing lethality” value in data set [2] (nude mice) is 23-29%. The “cross-resistance (fold of resistance vs parent cell line)” value was 1.5 x in data set [11]; 1.7 x and 1.2 x in [12].

Consider `C/C(=C\c1csc(C)n1)C1C[C@@H]2O[C@]2(C)CCC[C@H](C)[C@H](O)[C@@H](C)C(=O)C(C)(C)C(O)CC(=O)N1` (stereo partly shown) [aza-EpoB, aza-epothilone B], for which the pIC50 in data set [1] (Homo sapiens, read-out: IC50) is 8.92; in [3], 7.80; in data set [4], 8.62; in data set [5] (setting [16]), 8.37; in [6], 8.49; in data set [7], 7.38. The pIC50 is 7.22 in data set [8] (K562, listed as 15-aza-EpoB, read-out: IC50); 8.40 in data set [8] (K562, read-out: IC50); 8.60 in data set [9]; 7.93 in data set [10] (Homo sapiens, NCI/ADR-RES, read-out: IC50); 7.41 in [11] (CCRF-CEM/VM1, 72 h, read-out: IC50); 6.77 in data set [12] (read-out: IC50). Further, the pIC50 was 5.52 in data set [13] (Homo sapiens, CCRF-CEM/VBL100, 72 h, read-out: IC50); 6.54 in data set [14] (listed as 15-aza-EpoB, read-out: IC50); 5.62 in data set [14] (read-out: IC50); 8.68 in [15] (Homo sapiens, read-out: IC50). In addition, the “drop in body-weight that led to lethality” value in data set [2] (nude mice) is 14-20%. The “cross-resistance (fold of resistance vs parent cell line)” value is recorded as 2.7 x in [10]; 18.6 x in [11]; 118.6 x in data set [11] (listed as 15-aza-EpoB); 81.4 x in data set [12]; 1423 x in [13]; 274 x in [14]. Besides, the “cross-resistance (fold of resistance vs parent cell line)” value in data set [14] (listed as 15-aza-EpoB) turned out to be 33.1 x.

In general, pIC50 refers to −log10 of the IC50, conventionally taken in molar units.
